Results on one molecule are retold here after patent US12403114B2, “Cannabinoid acid ester compositions and uses thereof” (EPM (IP), INC., priority 2019, dated 2025).

The test deals with diet-induced obesity (DIO). Description: Diet-induced obese (DIO) mice on high-fat diet, metabolic profile. It is filed as in vivo, C57Bl/6 mice. The source says:
The experimental protocol used was approved by the Institutional Animal Care and Use Committee of the Hebrew University, which is an AAALAC International accredited institute. Male 6-week-old C57Bl/6 mice were obtained from Harlan Laboratories. Mice were maintained under a 12-h light/dark cycle and fed ad libitum. To generate diet-induced obesity, the mice were fed either a high-fat diet (HFD) (60% of calories from fat, 20% from protein, and 20% from carbohydrates; Research Diet, D12492) or a standard laboratory diet (STD, 14% fat, 24% protein, 62% carbohydrates; NIH-31 rodent diet) for 14 weeks.
HFD-fed obese mice received vehicle (1% Tween80, 4% DMSO, 95% Saline) or CBDA-ME daily for 28 days by intraperitoneal (ip) injections of 40 mg/kg. Age-matched control mice on STD received vehicle daily. Body weight and food intake were monitored daily. Total body fat and lean masses were determined by EchoMRI-100H™ (Echo Medical Systems LLC, Houston, Tex., USA). 24 h urine was collected one week before euthanasia using mouse metabolic cages (CCS2000 Chiller System, Hatteras Instruments, NC, USA). At weeks 20, mice were euthanized by a cervical dislocation under deep anesthesia, the kidneys, liver, fat pads, and muscles were removed and weighed, and samples were either snap-frozen or fixed in buffered 4% formalin. Trunk blood was collected for determining the biochemical parameters.
The experimental protocol used Metabolic profile of the mice was assessed by using the Promethion High-Definition Behavioral Phenotyping System (Sable Instruments, Inc., Las Vegas, Nev., USA). Data acquisition and instrument control were performed using MetaScreen software version 2.2.18.0, and the obtained raw data were processed using ExpeData version 1.8.4 using an analysis script detailing all aspects of data transformation. Mice with free access to food and water were subjected to a standard 12 h light/12 h dark cycle, which consisted of a 48 h acclimation period followed by 24 h of sampling. Respiratory gases were measured by using the GA-3 gas analyzer (Sable Systems, Inc., Las Vegas, Nev., USA) using a pull-mode, negative-pressure system. Air flow was measured and controlled by FR-8 (Sable Systems, Inc., Las Vegas, Nev., USA), with a set flow rate of 2000 mL/min. Water vapor was continuously measured and its dilution effect on O2 and CO2 was mathematically compensated. Effective mass was calculated by [body mass]^0.75. Fat oxidation (FO) and carbohydrate oxidation (CHO) were calculated as FO=1.69×VO2−1.69×VCO2 and CHO=4.57×VCO2−3.23×VO2 and expressed as g/d/kg^eff.Mass.
Locomotor activity was quantified by the number of disruptions of infrared XYZ beam arrays with a beam spacing of 0.25 cm in the Promethion High-Definition Behavioral Phenotyping System (Sable Instruments, Inc., Las Vegas, Nev., USA).
Mice that fasted overnight were injected with glucose (1.5 g/kg, ip), followed by a tail blood collection at 0, 15, 30, 45, 60, 90, and 120 minutes. Blood glucose levels were determined using the Elite glucometer (Bayer, Pittsburgh, Pa.).
Serum and urine levels of creatinine as well as serum levels of cholesterol, triglycerides (TG), high-density lipoprotein (HDL), low-density lipoprotein (LDL), alanine aminotransferase (ALT), aspartate aminotransferase (AST), and alkaline phosphatase (ALP) were determined using the Cobas C-111 chemistry analyzer (Roche, Switzerland) […]. Creatinine clearance was calculated using urine and serum creatinine levels (CCr mL/h=Urine creatinine mg/dL×Urine volume/Serum creatinine mg/dL×24 hrs). Fasting blood glucose was measured using the Elite glucometer (Bayer, Pittsburgh, Pa.).
Liver tissues were extracted as described previously (Tam, J., et al., Cell Metab, 2012. 16(2): p. 167-79) and its triglyceride content was determined using the EnzyChrom™ Triglyceride Assay Kit (BioAssay Systems). […]

Where [1] appears, read: HFD mice, 40 mg/kg/d ip for 28 days.
Setting [2] is: HFD mice, 40 mg/kg/d ip for 28 days (FIG. 30).
Where [3] appears, read: obesity related hepatocellular injury (FIG. 28).

Take `C=C(C)[C@@H]1CCC(C)=CC1c1c(O)cc(CCCCC)c(C(=O)OC)c1O` (stereo partly shown) [EPM-301, cannabidiolic acid methyl ester]: under setting [1], the HDL-cholesterol result is recorded as “without changing” and the LDL-cholesterol entry is recorded as “reduced”. Moreover, the “overweight (body weight)” value (HFD mice, 40 mg/kg/d ip for 28 days (FIG. 23A)) is listed as “significantly reduced”. Moreover, the “adiposity (fat mass)” value (HFD mice, 40 mg/kg/d ip for 28 days (FIG. 23B)) was “significantly reduced”. Also, where the note is “HFD mice, 40 mg/kg/d ip for 28 days (FIG. 23C)”, the lean body mass result was “without affecting”. For the setting “HFD mice, 40 mg/kg/d ip for 28 days (FIG. 23D)”, the leptin levels result is reported as “reduction”. The total ambulatory activity result (HFD mice, 40 mg/kg/d ip for 28 days (FIG. 25B)) was “without changing”. For the same molecule, the “HFD-induced hypertriglyceridemia (serum triglycerides)” value (HFD mice, 40 mg/kg/d ip for 28 days (FIG. 26A)) is “significantly reduced”. For the setting “HFD mice, 40 mg/kg/d ip for 28 days (FIG. 26B)”, the “HFD-induced hypercholesterinemia (serum cholesterol)” value is “significantly reduced”. For the setting “HFD mice, 40 mg/kg/d ip for 28 days (FIG. 26C)”, the “ratio between HDL to LDL” value is given as “Increased”. Further, for the setting “HFD mice, 40 mg/kg/d ip for 28 days (FIG. 27A)”, the fasting glucose levels result is given as “no change”. Further, for the setting “HFD mice, 40 mg/kg/d ip for 28 days (FIG. 29A)”, the “HFD-induced hepatic steatosis: elevated hepatic triglyceride levels” value is reported as “completely attenuated”. The “HFD-induced hepatic steatosis: increased fat vacuoles in the liver” value (HFD mice, 40 mg/kg/d ip for 28 days (FIG. 29B)) is on record as “completely attenuated”. Besides, under setting [2], the “HFD-induced kidney hypofiltration (creatinine clearance)” value is “completely normalized” and the “reduction in urine excretion-to-water consumption ratio” value was “completely normalized”. Moreover, the “glucose intolerance (ip glucose tolerance test)” value (glucose 1.5 g/kg ip after overnight fast (FIG. 27B-27D)) is given as “significant reduction”. Also, the “utilization of fat (fat oxidation)” value (indirect calorimetry, similar to lean mice on STD (FIG. 24A)) is “downregulate”. The carbohydrate oxidation entry (indirect calorimetry, similar to lean mice on STD (FIG. 24B)) is “upregulate”. Under setting [3], the “serum levels of ALP” value is given as “reduction”, the “serum levels of ALT” value is recorded as “reduction” and the “serum levels of AST” value is listed as “reduction”. In addition, the “ability to run on a wheel” value (similar to STD-fed animals (FIG. 25A)) is recorded as “increased ability”.
